Measurements as given in patent US20100285145A1, “GPR 119 MODULATORS” (PFIZER INC, priority 2009, published 2010).
Where “and” joins values, the source holds several entries; their conditions need not be identical. Equal entries are not always repeated.

Tests used:
[1] = target: T1, human GPR119 (Homo sapiens, UniProt Q8TDV5); test: cAMP HTRF functional assay (hGPR119 HEK-CRE beta-lactamase cells); assay type: cell-based; parameters: host or cells: HEK293-CRE beta-lactamase; settings: for Emax: read-out: Intrinsic Activity (Human cAMP)
T1 sequence (Q8TDV5 1-335): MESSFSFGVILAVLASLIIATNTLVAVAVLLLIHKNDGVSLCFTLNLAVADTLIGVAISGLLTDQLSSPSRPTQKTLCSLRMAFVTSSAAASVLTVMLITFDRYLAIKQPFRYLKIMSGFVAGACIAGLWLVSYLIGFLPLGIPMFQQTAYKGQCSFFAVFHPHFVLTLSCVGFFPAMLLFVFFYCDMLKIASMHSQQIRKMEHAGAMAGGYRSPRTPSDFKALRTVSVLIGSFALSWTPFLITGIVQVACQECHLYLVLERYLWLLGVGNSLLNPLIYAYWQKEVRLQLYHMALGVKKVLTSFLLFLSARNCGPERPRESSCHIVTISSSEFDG
Description: GPR119 agonist activity was also determined with a cell-based assay utilizing an HTRF (Homogeneous Time-Resolved Fluorescence) cAMP detection kit (cAMP dynamic 2 Assay Kit; Cis Bio cat #62AM4PEC) that measures cAMP levels in the cell. The method is a competitive immunoassay between native cAMP produced by the cells and the cAMP labeled with the dye d2. The tracer binding is visualized by a Mab anti-cAMP labeled with Cryptate. The specific signal (i.e. energy transfer) is inversely proportional to the concentration of cAMP in either standard or sample.
Specifically, hGPR119 HEK-CRE beta-lactamase cells (Invitrogen 2.5×10^7/mL; the same cell line used in the beta-lactamase assay described above) are removed from cryopreservation and diluted in growth medium (Dulbecco's modified Eagle medium high glucose (DMEM; Gibco Cat # 11995-065), 1% charcoal dextran treated fetal bovine serum (CD serum; HyClone Cat # SH30068.03), 1×MEM Nonessential amino acids (Gibco Cat # 15630-080) and 25 mM HEPES pH 7.0 (Gibco Cat # 15630-080)). The cell concentration was adjusted to 1.5×10^5 cells/mL and 30 mLs of this suspension was added to a T-175 flask and incubated at 37 degrees Celsius in a humidified environment in 5% carbon dioxide. After 16 hours (overnight), the cells were removed from the T-175 flask (by rapping the side of the flask), centrifuged at 800×g and then re-suspended in assay medium (1×HBSS+CaCl2+MgCl2 (Gibco Cat # 14025-092) and 25 mM HEPES pH 7.0 (Gibco Cat # 15630-080)). The cell concentration was adjusted to 6.25×10^5 cells/mL with assay medium and 8 μl of this cell suspension (5000 cells) was added to each well of a white Greiner 384-well, low-volume assay plate (VWR cat #82051-458).
Varying concentrations of each compound to be tested were diluted in assay buffer containing 3-isobutyl-1-methylxanthin (IBMX; Sigma cat #15879) and added to the assay plate wells in a volume of 2 microL (final IBMX concentration was 400 microM and final DMSO concentration was 0.58%). Following 30 minutes incubation at room temperature, 5 microL of labeled d2 cAMP and 5 microL of anti-cAMP antibody (both diluted 1:20 in cell lysis buffer; as described in the manufacturers assay protocol) were added to each well of the assay plate. The plates were then incubated at room temperature and after 60 minutes, changes in the HTRF signal were read with an Envision 2104 multilabel plate reader using excitation of 330 nm and emissions of 615 and 665 nm. Raw data were converted to nM cAMP by interpolation from a cAMP standard curve (as described in the manufacturer's assay protocol) and EC50 determinations were made from an agonist-response curves analyzed with a curve fitting program using a 4-parameter logistic dose response equation.

[2] = target: T1, human GPR119; test: GPR119 radioligand binding assay ([3H]-Compound A or B, membranes of HEK 293FT cells expressing hGPR119); parameters: host or cells: HEK293-CRE beta-lactamase; settings: calculated from IC50 with Cheng-Prusoff; each line a separate determination
Description: HEK 293FT cells (Invitrogen, Carlsbad, Calif.) were grown in a shake flask in 293Freestyle medium (Invitrogen) supplemented with 50 microg/mL neomycin and 10 mM HEPES (37C, 8% carbon dioxide, shaking). The cells were centrifuged gently (approximately 500×g, 10 minutes) and the pellet resuspended in a mixture of Dulbecco's PBS (minus Mg++/−Ca++) supplemented with 18% fetal bovine serum (Sigma Aldrich) and P1 virus such that the multiplicity of infection (MOI) was 10 and the final cell density was 1.3×10^6/mL (total volume 2.5 liters). The cells were transferred to a 5 liter Wave Bioreactor Wavebag (Wave Technologies, Mass.) and incubated for 4 hours at 27 degrees Celsius (17 rocks/min, 7 degrees platform angle); at the end of the incubation period, an equal volume (2.5 liters) of 293Freestyle medium supplemented with 30 mM sodium butyrate (Sigma Aldrich) was added (final concentration=15 mM), and the cells were grown for 20 hours (37 degrees Celsius, 8% CO2 [0.2 liters/min}, 25 rocks/minute, 7 degrees platform angle). Cells were harvested via centrifugation (3,000×g, 10 minutes), washed once on DPBS (minus Ca++/Mg++), resuspended in 0.25M sucrose, 25 mM HEPES, 0.5 mM EDTA, pH 7.4 and frozen at −80 degrees Celsius.
The frozen cells were thawed on ice and centrifuged at 700×g (1400 rpm) for 10 minutes at 4 degrees Celsius. The cell pellet was resuspended in 20 mL phosphate-buffered saline, and centrifuged at 1400 rpm for 10 minutes. The cell pellet was then resuspended in homogenization buffer (10 mM HEPES (Gibco #15630), pH 7.5, 1 mM EDTA (BioSolutions, #BIO260-15), 1 mM EGTA (Sigma, #E-4378), 0.01 mg/mL benzamidine (Sigma #B 6506), 0.01 mg/mL bacitracin (Sigma #B 0125), 0.005 mg/mL leupeptin (Sigma #L 8511), 0.005 mg/mL aprotinin (Sigma #A 1153)) and incubated on ice for 10 minutes. Cells were then lysed with 15 gentle strokes of a tight-fitting glass Dounce homogenizer. The homogenate was centrifuged at 1000×g (2200 rpm) for 10 minutes at 4 degrees Celsius. The supernatant was transferred into fresh centrifuge tubes on ice. The cell pellet was resuspended in homogenization buffer, and centrifuged again at 1000×g (2200 rpm) for 10 minutes at 4 degrees Celsius after which the supernatant was removed and the pellet resuspended in homogenization buffer. This process was repeated a third time, after which the supernatants were combined, Benzonase (Novagen # 71206) and MgCl2 (Fluka #63020) were added to final concentrations of 1 U/mL and 6 mM, respectively, and incubated on ice for one hour. The solution was then centrifuged at 25,000×g (15000 rpm) for 20 minutes at 4 degrees Celsius, the supernatant was discarded, and the pellet was resuspended in fresh homogenization buffer (minus Benzonase and MgCl2). After repeating the 25,000×g centrifugation step, the final membrane pellet was resuspended in homogenization buffer and frozen at −80 degrees Celsius. The protein concentration was determined using the Pierce BCA protein assay kit (Pierce reagents A #23223 and B #23224).
Test compounds were serially diluted in 100% DMSO (J. T. Baker #922401). 2 microL of each dilution was added to appropriate wells of a 96-well plate (each concentration in triplicate). Unlabeled Compound A (or Compound B), at a final concentration of 10 microM, was used to determine non-specific binding. [^3H]-Compound A (or [^3H]-Compound B) was diluted in binding buffer (50 mM Tris-HCl, pH 7.5, (Sigma #T7443), 10 mM MgCl2 (Fluka 63020), 1 mM EDTA (BioSolutions #BIO260-15), 0.15% bovine serum albumin (Sigma #A7511), 0.01 mg/mL benzamidine (Sigma #B 6506), 0.01 mg/mL bacitracin (Sigma #B 0125), 0.005 mg/mL leupeptin (Sigma #L 8511), 0.005 mg/mL aprotinin (Sigma #A 1153)) to a concentration of 60 nM, and 100 microL added to all wells of 96-well plate (Nalge Nunc # 267245). […]

[3] = target: T1, human GPR119; test: β-Arrestin PathHunter assay (U2OS hGPR119 β-arrestin cells); assay type: cell-based; settings: U2OS, percent of maximal activity relative to standard GPR119 agonist at 10 micromolar; read-out: Intrinsic Activity (Human B-arrestin)
Description: GPR119 agonist activity was also determined with a cell-based assay utilizing DiscoverX PathHunter β-arrestin cell assay technology and their U2OS hGPR119 β-arrestin cell line (DiscoverX Cat # 93-0356C3). In this assay, agonist activation is determined by measuring agonist-induced interaction of β-arrestin with activated GPR119. A small, 42 amino acid enzyme fragment, called ProLink was appended to the C-terminus of GPR119. Arrestin was fused to the larger enzyme fragment, termed EA (Enzyme Acceptor). Activation of GPR119 stimulates binding of arrestin and forces the complementation of the two enzyme fragments, resulting in formation of a functional β-galactosidase enzyme capable of hydrolyzing substrate and generating a chemiluminescent signal.
Specifically, U2OS hGPR119 β-arrestin cells (DiscoverX 1×10^7/mL) are removed from cryopreservation and diluted in growth medium (Minimum essential medium (MEM; Gibco Cat # 11095-080), 10% heat inactivated fetal bovine serum (HIFBS; Sigma Cat # F4135-100), […] sodium pyruvate (Sigma Cat # S8636), 500 microg/mL G418 (Sigma Cat # G8168) and 250 microg/mL Hygromycin B (Invitrogen Cat # 10687-010). The cell concentration was adjusted to 1.66×10^5 cells/mL and 30 mLs of this suspension was added to a T-175 flask and incubated at 37 degrees Celsius in a humidified environment in 5% carbon dioxide. After 24 hours, the cells were removed from the T-175 flask with enzyme-free cell dissociation buffer (Gibco cat #13151-014), centrifuged at 800×g and then re-suspended in plating medium (Opti-MEM I (Invitrogen/BRL Cat # 31985-070) and 2% charcoal dextran treated fetal bovine serum (CD serum; HyClone Cat # SH30068.03).
The cell concentration was adjusted to 2.5×10^5 cells/mL with plating medium and 20 microliters of this cell suspension (5000 cells) was added to each well of a white Greiner 384-well low volume assay plate (VWR cat #82051-458) and the plates were incubated at 37 degrees Celsius in a humidified environment in 5% carbon dioxide.
After 16 hours (overnight) the assay plates were removed from the incubator and varying concentrations of each compound to be tested (diluted in assay buffer (1×HBSS+CaCl2+MgCl2 (Gibco Cat # 14025-092), 20 mM HEPES pH 7.0 (Gibco Cat # 15630-080) and 0.1% BSA (Sigma Cat # A9576)) were added to the assay plate wells in a volume of 5 microliters (final DMSO concentration was 0.5%). After a 90 minute incubation at 37 degrees Celsius in a humidified environment in 5% carbon dioxide, 12 microliters of Galacton Star β-galactosidase substrate (PathHunter Detection Kit (DiscoveRx Cat # 93-0001); prepared as described in the manufacturers assay protocol) was added to each well of the assay plate. The plates were incubated at room temperature and after 60 minutes, changes in the luminescence were read with an Envision 2104 multilabel plate reader at 0.1 seconds per well. EC50 determinations were made from an agonist-response curves analyzed with a curve fitting program using a 4-parameter logistic dose response equation.

[4] = HTRF cAMP, 30 min, 400 microM IBMX, each line a separate determination
[5] = percent of maximal activity relative to standard GPR119 agonist at 10 micromolar
[6] = marked **: curve was extrapolated to 100%

| EC50 [1, 4] | Intrinsic Activity (Human cAMP) [1, 5] | Emax [1, 5] | Ki [2] | EC50 ([1]; curve was extrapolated to 100% to calculate an EC50) | Intrinsic Activity (Human cAMP) [1, 6] | Emax [1, 6] | Emax [3] | Compound |
| --- | --- | --- | --- | --- | --- | --- | --- | --- |
| 0.549 µM and 0.52 µM | 28% | 28% | > 8.15 µM | – | – | – | – | Cc1c(O[C@@H]2CCN(C(=O)OC(C)(C)C)C[C@@H]2F)ncnc1N1CCc2nnccc21 [Example 30, tert-Butyl (3S,4R)-4-{[6-(6,7-dihydro-5H-pyrrolo[3,2-c]pyridazin-5-yl)-5-methylpyrimidin-4-yl]oxy}-3-fluoropiperidine-1-carboxylate] |
| – | – | – | 0.618 µM | 4.82 µM and 5.89 µM and 6.1 µM | 100** % | 100% | – | Cc1c(O[C@@H]2CCN(C(=O)OC3(C)CC3)C[C@@H]2F)ncnc1N1CCc2nnccc21 [Example 31, 1-Methylcyclopropyl (3S,4R)-4-{[6-(6,7-dihydro-5H-pyrrolo[3,2-c]pyridazin-5-yl)-5-methylpyrimidin-4-yl]oxy}-3-fluoropiperidine-1-carboxylate] |
| – | 37% and 36% | 41.9% | – | – | – | – | 32.1% | Cc1c(O[C@@H]2[C@@H]3COC[C@H]2CN(C(=O)OC2(C)CC2)C3)ncnc1N1CCc2ncccc21 [Example 28, 1-Methylcyclopropyl (9-syn)-9-{[6-(2,3-dihydro-1H-pyrrolo[3,2-b]pyridin-1-yl)-5-methylpyrimidin-4-yl]oxy}-3-oxa-7-azabicyclo[3.3.1]nonane-7-carboxylate] |

Further lines, the molecule ahead of its results:

| Compound | EC50 [1, 4] | Intrinsic Activity (Human cAMP) [1, 5] | Emax [1, 5] | Ki [2] | EC50 ([1]; curve was extrapolated to 100% to calculate an EC50) | Intrinsic Activity (Human cAMP) [1, 6] | Emax [1, 6] | Emax [3] |
| --- | --- | --- | --- | --- | --- | --- | --- | --- |
| Cc1c(OC2CCN(C(=O)OC3(C)CC3)CC2F)ncnc1N1CCc2cc(C(N)=O)ccc21 (racemic) [Example 20, 1-Methylcyclopropyl 4-{[6-(5-carbamoyl-2,3-dihydro-1H-indol-1-yl)-5-methylpyrimidin-4-yl]oxy}-3-fluoropiperidine-1-carboxylate (racemic)] | 0.493 µM and 0.765 µM and 1.05 µM | 91.6% and 98% | 81.5% | 1.71 µM | – | – | – | – |
| Cc1c(O[C@H]2[C@@H]3COC[C@H]2CN(C(=O)OC(C)(C)C)C3)ncnc1N1CCc2ncccc21 [Example 21, tert-Butyl (9-anti)-9-{[6-(2,3-dihydro-1H-pyrrolo[3,2-b]pyridin-1-yl)-5-methylpyrimidin-4-yl]oxy}-3-oxa-7-azabicyclo[3.3]nonane-7-carboxylate] | 0.107 µM and 0.0878 µM | 45.2% | 49.8% | 0.026 µM and 0.0256 µM | – | – | – | – |
